Kd and IC50 data for 2 compounds are collected here from ChEMBL document CHEMBL1133500, “Active site binding modes of HIV-1 integrase inhibitors” (J Med Chem, 2000).

A value given as a limit tells only on which side of the number the result lay.

The term Kd denotes the constant that tells how readily two partners part at equilibrium. A word on the IC50: it is the midpoint of a concentration-inhibition curve. Lower therefore signals inhibition by little substance.

In experiment [1] the target is T1, Human immunodeficiency virus type 1 integrase (Human immunodeficiency virus 1, UniProt Q7ZJM1).
T1 sequence (Q7ZJM1 whole entry): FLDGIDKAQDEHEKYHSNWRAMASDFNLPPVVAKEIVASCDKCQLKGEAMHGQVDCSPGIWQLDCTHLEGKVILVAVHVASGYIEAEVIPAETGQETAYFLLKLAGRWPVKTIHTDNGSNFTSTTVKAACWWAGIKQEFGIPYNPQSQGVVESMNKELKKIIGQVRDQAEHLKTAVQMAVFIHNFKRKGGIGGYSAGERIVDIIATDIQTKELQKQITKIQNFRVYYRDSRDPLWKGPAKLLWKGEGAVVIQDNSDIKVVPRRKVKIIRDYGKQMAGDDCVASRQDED
Experiment [2] has as its target T1, Human immunodeficiency virus type 1 integrase. This is another data set of the same source.
Experiment [3] can be described thus: Inhibitory activity against ASV (avian sarcoma virus) integrase; Range 40-350 uM.

Compound `O=C1c2ccc(O)c(O)c2C(=O)c2c(O)ccc(O)c21` [QUINALIZARIN] returned a dissociation constant (Kd) in experiment [1] of under 15 µM. The IC50 in experiment [2] was under 17 µM.

`CC(=O)Nc1cc(S(=O)(=O)O)cc2cc(S(=O)(=O)O)cc(O)c12`: in experiment [3], the IC50 was under 350 µM.
